Measured values from patent publication US8877769B2, “Heteroaryl-substituted urea modulators of fatty acid amide hydrolase” (Janssen Pharmaceutica NV, priority 2008, dated 2014).

How the values were obtained:
Rat FAAH = molecular target: T1, Rat FAAH (Rattus norvegicus, UniProt P97612); test: Assay Method 2: FAAH assay, 3H-anandamide hydrolysis in cell homogenate; type: biochemical; conditions: average of results obtained, > value = solubility limit or highest concentration tested
T1 construct: expressed in transfected cells
T1 sequence (P97612 1-579): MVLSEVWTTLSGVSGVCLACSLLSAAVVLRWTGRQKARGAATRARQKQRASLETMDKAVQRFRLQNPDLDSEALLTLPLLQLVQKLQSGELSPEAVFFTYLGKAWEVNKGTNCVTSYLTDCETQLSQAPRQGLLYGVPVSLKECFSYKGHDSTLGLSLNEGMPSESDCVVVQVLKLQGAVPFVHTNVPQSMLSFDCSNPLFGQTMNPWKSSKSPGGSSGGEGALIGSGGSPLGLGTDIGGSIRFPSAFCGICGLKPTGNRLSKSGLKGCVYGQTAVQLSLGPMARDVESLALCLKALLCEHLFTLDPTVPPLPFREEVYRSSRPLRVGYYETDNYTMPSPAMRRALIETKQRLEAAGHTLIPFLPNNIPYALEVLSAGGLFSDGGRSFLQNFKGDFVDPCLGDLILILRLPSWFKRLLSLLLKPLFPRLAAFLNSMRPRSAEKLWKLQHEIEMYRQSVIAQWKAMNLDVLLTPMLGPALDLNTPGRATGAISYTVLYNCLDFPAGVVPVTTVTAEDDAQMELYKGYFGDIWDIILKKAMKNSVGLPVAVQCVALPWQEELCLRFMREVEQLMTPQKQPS
Description: A. Transfection of Cells with Rat FAAH
The assay mixture consisted of 50 μL of the cell homogenate, 10 μL of the test compound, and 40 μL of anandamide [1-^3H-ethanolamine] (^3H-AEA, Perkin-Elmer, 10.3 Ci/mmol), which was added last, for a final tracer concentration of 80 nM. The reaction mixture was incubated at rt for 1 h. During the incubation, 96-well Multiscreen filter plates (catalog number MAFCNOB50; Millipore, Bedford, Mass., USA) were loaded with 25 μL of activated charcoal (Multiscreen column loader, catalog number MACL09625, Millipore) and washed once with 100 μL of MeOH. […] After the 1 h incubation, 60 μL of the reaction mixture were transferred to the charcoal plates, which were then assembled on top of the DYNEX plates using Centrifuge Alignment Frames (catalog number MACF09604, Millipore). The unbound labeled ethanolamine was centrifuged through to the bottom plate (5 min at 2000 rpm), which was preloaded with the scintillant, as described above. The plates were sealed and left at rt for 1 h before counting on a Hewlett Packard TopCount.

FAAH = molecular target: T2, FAAH (Homo sapiens, UniProt O00519); test: Assay Method 1: FAAH assay, 3H-anandamide hydrolysis in cell homogenate
T2 sequence (O00519 1-579): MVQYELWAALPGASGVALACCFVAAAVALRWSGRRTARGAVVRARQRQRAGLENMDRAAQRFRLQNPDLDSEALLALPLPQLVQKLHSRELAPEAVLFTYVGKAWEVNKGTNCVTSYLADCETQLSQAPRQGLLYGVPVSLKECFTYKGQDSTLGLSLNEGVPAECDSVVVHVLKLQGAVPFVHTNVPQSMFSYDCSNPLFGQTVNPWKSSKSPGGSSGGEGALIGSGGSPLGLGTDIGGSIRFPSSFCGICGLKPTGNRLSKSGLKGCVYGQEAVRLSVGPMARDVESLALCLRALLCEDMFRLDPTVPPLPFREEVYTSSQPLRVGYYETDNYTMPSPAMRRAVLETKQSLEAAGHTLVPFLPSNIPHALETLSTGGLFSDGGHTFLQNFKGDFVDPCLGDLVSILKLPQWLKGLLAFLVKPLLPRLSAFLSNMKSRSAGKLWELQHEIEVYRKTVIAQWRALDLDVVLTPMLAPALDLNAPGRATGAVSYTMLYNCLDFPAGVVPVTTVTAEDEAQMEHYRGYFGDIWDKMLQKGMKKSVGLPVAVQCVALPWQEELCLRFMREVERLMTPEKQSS
Description: The assay mixture consisted of 50 μL of the cell homogenate, 10 μL of the test compound, and 40 μL of anandamide [1-^3H-ethanolamine] (^3H-AEA, Perkin-Elmer, 10.3 Ci/mmol), which was added last, for a final tracer concentration of 80 nM. The reaction mixture was incubated at rt for 1 h. During the incubation, 96-well Multiscreen filter plates (catalog number MAFCNOB50; Millipore, Bedford, Mass., USA) were loaded with 25 μL of activated charcoal (Multiscreen column loader, catalog number MACL09625, Millipore) and washed once with 100 μL of MeOH. […] After the 1 h incubation, 60 μL of the reaction mixture were transferred to the charcoal plates, which were then assembled on top of the DYNEX plates using Centrifuge Alignment Frames (catalog number MACF09604, Millipore). The unbound labeled ethanolamine was centrifuged through to the bottom plate (5 min at 2000 rpm), which was preloaded with the scintillant, as described above. The plates were sealed and left at rt for 1 h before counting on a Hewlett Packard TopCount. • Assay Method 2

Row | SMILES | IC50 (Rat FAAH) | IC50 (FAAH)
1 | N#Cc1ccc(Oc2cccc(CN3CCN(C(=O)Nc4cnc5[nH]ccc5c4)CC3)c2)nc1 [Example 79, 4-[3-(5-Cyano-pyridin-2-yloxy)-benzyl]-piperazine-1-carboxylic acid (1H-pyrrolo[2,3-b]pyridin-5-yl)-amide] | 0.27 µM | 0.022 µM
2 | O=C(Nc1ccc2ncoc2c1)N1CCN(Cc2cccc(Oc3ccc(Cl)cc3)c2)CC1 [Example 46, 4-[3-(4-Chloro-phenoxy)-benzyl]-piperazine-1-carboxylic acid benzooxazol-6-ylamide] | 7 µM | 0.027 µM
3 | O=C(Nc1noc2ncccc12)N1CCN(Cc2ccc3c(c2)OCO3)CC1 [Example 7, 4-Benzo[1,3]dioxol-5-ylmethyl-piperazine-1-carboxylic acid isoxazolo[5,4-b]pyridin-3-ylamide] | > 10 µM | > 10 µM
4 | O=C(Nc1noc2ncccc12)N1CCN(Cc2cnc3ccccc3c2)CC1 [Example 10, 4-Quinolin-3-ylmethyl-piperazine-1-carboxylic acid isoxazolo[5,4-b]pyridin-3-ylamide] | > 10 µM | > 10 µM
5 | O=C(Nc1noc2cccnc12)N1CCN(Cc2ccc3c(c2)OC(F)(F)O3)CC1 [Example 42, 4-(2,2-Difluoro-benzo[1,3]dioxol-5-ylmethyl)-piperazine-1-carboxylic acid isoxazolo[4,5-b]pyridin-3-ylamide] | 0.22 µM | 2 µM
6 | O=C(Nc1noc2ncccc12)N1CCN(Cc2cccc(Oc3ccc(SC(F)(F)F)cc3)c2)CC1 [Example 17, 4-[3-(4-Trifluoromethylsulfanyl-phenoxy)-benzyl]-piperazine-1-carboxylic acid isoxazolo[5,4-b]pyridin-3-ylamide] | 0.18 µM | 0.47 µM
7 | O=C(Nc1noc2ncccc12)N1CCN(Cc2cccc(Oc3ccccc3Cl)c2)CC1 [Example 8, 4-[3-(2-Chloro-phenoxy)-benzyl]-piperazine-1-carboxylic acid isoxazolo[5,4-b]pyridin-3-ylamide] | 8 µM | 1.5 µM
8 | O=C(Nc1noc2ncccc12)N1CCN(Cc2ccc3cc[nH]c3c2)CC1 [Example 9] | > 10 µM | > 10 µM
9 | O=C(Nc1noc2cnccc12)N1CCN(Cc2ccc3c(c2)OC(F)(F)O3)CC1 [Example 39, 4-(2,2-Difluoro-benzo[1,3]dioxol-5-ylmethyl)-piperazine-1-carboxylic acid isoxazolo[5,4-c]pyridin-3-ylamide] | 0.011 µM | 0.006 µM
10 | O=C(Nc1cnc2cc[nH]c2c1)N1CCN(Cc2ccc3c(c2)OC(F)(F)O3)CC1 [Example 45, 4-(2,2-Difluoro-benzo[1,3]dioxol-5-ylmethyl)-piperazine-1-carboxylic acid (1H-pyrrolo[3,2-b]pyridin-6-yl)-amide] | 0.23 µM | 0.23 µM
11 | O=C(Nc1noc2ncccc12)N1CCN(Cc2ccc3ccccc3n2)CC1 [Example 12, 4-Quinolin-2-ylmethyl-piperazine-1-carboxylic acid isoxazolo[5,4-b]pyridin-3-ylamide] | > 10 µM | 2.6 µM
12 | N#Cc1ccc(Oc2cccc(CN3CCN(C(=O)Nc4noc5ncccc45)CC3)c2)cc1 [Example 32, 4-[3-(4-Cyano-phenoxy)-benzyl]-piperazine-1-carboxylic acid isoxazolo[5,4-b]pyridin-3-ylamide] | 2.3 µM | 0.3 µM
13 | O=C(Nc1cnc2cccnn12)N1CCN(Cc2ccc3c(c2)OC(F)(F)O3)CC1 [Example 3, 4-(2,2-Difluoro-benzo[1,3]dioxol-5-ylmethyl)-piperazine-1-carboxylic acid imidazo[1,2-b]pyridazin-3-ylamide] | 0.16 µM | 0.23 µM
14 | O=C(Nc1cnc2cccnn12)N1CCC(Cc2ccc(Cl)c(Cl)c2)CC1 [Example 83, 4-(3,4-Dichlorobenzyl)-N-imidazo[1,2-b]pyridazin-3-ylpiperidine-1-carboxamide] | 0.03 µM | 0.015 µM
15 | O=C(Nc1noc2ncccc12)N1CCN(Cc2cccc(Oc3ccc(OC(F)(F)F)cc3)c2)CC1 [Example 37, 4-[3-(4-Trifluoromethoxy-phenoxy)-benzyl]-piperazine-1-carboxylic acid isoxazolo[5,4-b]pyridin-3-ylamide] | 0.1 µM | 0.2 µM
16 | Cc1nn(C)c2ncc(NC(=O)N3CCN(Cc4cccc(Oc5ccc(Cl)cc5)c4)CC3)cc12 [Example 64, 4-[3-(4-Chloro-phenoxy)-benzyl]-piperazine-1-carboxylic acid (1,3-dimethyl-1H-pyrazolo[3,4-b]pyridin-5-yl)-amide] | 0.095 µM | 0.026 µM
17 | O=C(NC1=NS(=O)(=O)c2ccccc21)N1CCN(Cc2cccc(Oc3ccc(Cl)cc3)c2)CC1 [Example 59, 4-[3-(4-Chloro-phenoxy)-benzyl]-piperazine-1-carboxylic acid (1,1-dioxo-1H-λ^6-benzo[d]isothiazol-3-yl)-amide] | 2 µM | 2 µM
18 | O=C(Nc1cnc2cccnn12)N1CCN(Cc2ccc(OC(F)(F)F)c(Cl)c2)CC1 [Example 4, 4-(3-Chloro-4-trifluoromethoxy-benzyl)-piperazine-1-carboxylic acid imidazo[1,2-b]pyridazin-3-ylamide] | 0.03 µM | 0.054 µM
19 | O=C(Nc1noc2ncccc12)N1CCN(Cc2cccc(Oc3ccc(Br)cc3)c2)CC1 [Example 24, 4-[3-(4-Bromo-phenoxy)-benzyl]-piperazine-1-carboxylic acid isoxazolo[5,4-b]pyridin-3-ylamide] | 0.053 µM | 0.034 µM
20 | Cn1cc2c(NC(=O)N3CCN(Cc4cccc(Oc5ccc(Cl)cc5)c4)CC3)cccc2n1 [Example 65, 4-[3-(4-Chloro-phenoxy)-benzyl]-piperazine-1-carboxylic acid (2-methyl-2H-indazol-4-yl)-amide] | 0.028 µM | 0.05 µM
21 | O=C(Nc1cn2ccccc2n1)N1CCN(Cc2ccc(OC(F)(F)F)c(Cl)c2)CC1 [Example 56, 4-(3-Chloro-4-trifluoromethoxy-benzyl)-piperazine-1-carboxylic acid imidazo[1,2-a]pyridin-2-ylamide] | > 10 µM | > 10 µM
22 | O=C(Nc1cnc2ccccn12)N1CCC(Cc2ccc(Cl)c(Cl)c2)CC1 [Example 82, 4-(3,4-Dichlorobenzyl)-N-imidazo[1,2-a]pyridin-3-ylpiperidine-1-carboxamide] | 0.8 µM | 0.9 µM
23 | O=C(Nc1noc2ncccc12)N1CCN(Cc2cccc(Oc3ccc4c(c3)OC(F)(F)O4)c2)CC1 [Example 34, 4-[3-(2,2-Difluoro-benzo[1,3]dioxol-5-yloxy)-benzyl]-piperazine-1-carboxylic acid isoxazolo[5,4-b]pyridin-3-ylamide] | > 0.4 µM | > 0.06 µM
24 | N#Cc1ccc(Oc2cccc(CN3CCN(C(=O)Nc4noc5ncccc45)CC3)c2)cc1C(F)(F)F [Example 19, 4-[3-(4-Cyano-3-trifluoromethyl-phenoxy)-benzyl]-piperazine-1-carboxylic acid isoxazolo[5,4-b]pyridin-3-ylamide] | > 10 µM | > 10 µM
25 | O=C(Nc1ccc2ncoc2c1)N1CCN(Cc2ccc3c(c2)OC(F)(F)O3)CC1 [Example 47, 4-(2,2-Difluoro-benzo[1,3]dioxol-5-ylmethyl)-piperazine-1-carboxylic acid benzooxazol-6-ylamide] | 3 µM | 2 µM
26 | O=C(Nc1cccc2nccn12)N1CCN(Cc2ccc(OC(F)(F)F)c(Cl)c2)CC1 [Example 70, 4-(3-Chloro-4-trifluoromethoxy-benzyl)-piperazine-1-carboxylic acid imidazo[1,2-a]pyridin-5-ylamide] | 0.038 µM | 0.067 µM
